Eight compounds from PMC6353901, “Systematic characterization of position one variants within the lantibiotic nisin” (Scientific Reports, 2019) can be followed below.

The test has as its system NisP. The test can be described thus: Leader peptide cleavage of pre-nisin variants by NisP (RP-HPLC). It is filed as biochemical, Lactococcus lactis. Conditions: in vitro cleavage of the leader peptide from purified pre-nisin (variant) by purified secreted NisP, overnight at 8 °C, integration of leader peptide peaks. From the text:
Step IV concerns leader peptide cleavage and thereby activation of the purified pre-nisin variants. Here, we used the secreted variant of the natural leader peptidase NisP, by which the leader peptide is cleaved in vitro and the cleavage efficiency (%) can be calculated as recently shown. We used an RP-HPLC set-up to monitor product formation, in which the appearance of the leader peptide in the chromatograms was used to determine the concentration of activated nisin (Supplementary Fig. S3). […] The nisin core peptide eluted at a later retention time of approximately 23 min (Supplementary Fig. S3). […] However, in the case of the I1 mutants I1A, I1G, I1T, I1S, I1K, I1R, I1H, I1Q, I1E, I1N and I1D) the formation of a core peptide peak in terms of a new and separated peak in the chromatogram was not observed (Supplementary Fig. S4). Rather, the peaks with a retention time between 18–21 min contained both species, the cleaved and non-cleaved lantibiotic, and can therefore not be deconvoluted for proper determination of the amount of activated nisin. […] The concentration was calculated based on a standard calibration curve (Supplementary Fig. S5), where we precisely determined the concentration of the activated nisin or I1 mutants. We used this concentration determination instead of the colorimetric protein concentration determination as for example Bradford or the BCA-assay since the latter two assays cannot differentiate between the activated and non-activated form of the secreted variants. Since nisin is not active unless the leader is cleaved off, the determination of the area of the leader peak to calculate the amount of the activated lantibiotic directly relates to the antimicrobial activity without need to further purify the peptide after cleavage.
All I1 mutations were subjected to NisP cleavage and most of the variants were cleaved, but a strong influence of the nature of the I1 substitutions with respect to cleavage efficiency was observed (Supplementary Fig. S6). The cleavage efficiency for wild type pre-nisin A was 94.3 ± 1.7% but lower for the mutants I1M, I1L, I1A and I1V (72.3 ± 1.4%, 72.4 ± 1.3%, 81.0 ± 1.8% and 58.1± 2.8%, respectively). […] This holds especially in those cases, where the amino acid at position one was exchanged to a charged amino acid (e.g. I1K 9.2 ± 1.3%; I1E 9.5 ± 0.7%) or contained a bulky hydrophobic side chain (e.g. I1F 12.9 ± 0.8%; I1W 5.7 ± 0.2%; I1Y 22.6 ± 2.3%) (Supplementary Fig. S6). […] Even after an extensive prolongation of the incubation time, no leader peptide peak was detected in the RP-HPLC chromatogram (Supplementary Fig. S4). It is important to stress in this context that the cleavage efficiencies cannot be determined from Tricine-SDS gels (20%). Here, the leader peptide as well as the core peptide would co-migrate, which obviously will falsify the staining results.
Pre-nisin and its variants were expressed and purified as previously described[41],[49],[69]. The purity of pre-nisin and its variants was controlled by Tricine-SDS-PAGE (20%)[70]. The activation of all variants was performed by NisP cleavage overnight at 8 °C. Pre-nisin cleavage and its variants was monitored by RP-HPLC[49],[69].
Pre-nisin and the activated nisin variants were analysed by RP-HPLC (Agilent Technologies 1260 Infinity II) with a LiChrospher WP 300 RP-18 end-capped column and an acetonitrile/water solvent system. The cleavage efficiency and the concentration of active lantibiotic was calculated as described previously[49],[69].

Ends that are not written are not given here.

Regarding `C=C(NC(=O)[C@@H](NC(=O)[C@H](Cc1c[nH]cn1)NC(=O)[C@@H](NC(=O)[C@H](CO)NC(=O)[C@@H]1CS[C@@H](C)[C@H]2NC(=O)[C@H](C)NC(=O)[C@H](NC(=O)[C@H](CCCCN)NC(=O)[C@H](CCSC)NC(=O)[C@H](CC(N)=O)NC(=O)[C@@H]3CS[C@@H](C)[C@@H](NC(=O)[C@H](CCCCN)NC(=O)[C@@H]4CS[C@@H](C)[C@@H](NC(=O)[C@@H]5CSC[C@@H](NC(=O)/C(=C/C)NC(=O)[C@@H](N)CC(C)C)C(=O)N[C@@H]([C@@H](C)CC)C(=O)NC(=C)C(=O)N[C@@H](CC(C)C)C(=O)N5)C(=O)N5CCC[C@H]5C(=O)NCC(=O)N4)C(=O)NCC(=O)N[C@@H](C)C(=O)N[C@@H](CC(C)C)C(=O)N[C@@H](CCSC)C(=O)NCC(=O)N3)[C@H](C)SC[C@H](NC2=O)C(=O)N[C@@H](Cc2c[nH]cn2)C(=O)N1)[C@@H](C)CC)C(C)C)C(=O)N[C@@H](CCCCN)C(=O)O` [I1L], the “cleavage efficiency by NisP” value is 72.4 ± 1.3%.
The value for `C=C(NC(=O)[C@@H](NC(=O)[C@H](Cc1c[nH]cn1)NC(=O)[C@@H](NC(=O)[C@H](CO)NC(=O)[C@@H]1CS[C@@H](C)[C@H]2NC(=O)[C@H](C)NC(=O)[C@H](NC(=O)[C@H](CCCCN)NC(=O)[C@H](CCSC)NC(=O)[C@H](CC(N)=O)NC(=O)[C@@H]3CS[C@@H](C)[C@@H](NC(=O)[C@H](CCCCN)NC(=O)[C@@H]4CS[C@@H](C)[C@@H](NC(=O)[C@@H]5CSC[C@@H](NC(=O)/C(=C/C)NC(=O)[C@@H](N)Cc6ccccc6)C(=O)N[C@@H]([C@@H](C)CC)C(=O)NC(=C)C(=O)N[C@@H](CC(C)C)C(=O)N5)C(=O)N5CCC[C@H]5C(=O)NCC(=O)N4)C(=O)NCC(=O)N[C@@H](C)C(=O)N[C@@H](CC(C)C)C(=O)N[C@@H](CCSC)C(=O)NCC(=O)N3)[C@H](C)SC[C@H](NC2=O)C(=O)N[C@@H](Cc2c[nH]cn2)C(=O)N1)[C@@H](C)CC)C(C)C)C(=O)N[C@@H](CCCCN)C(=O)O` [I1F] was 12.9 ± 0.8%; that for `C=C(NC(=O)[C@@H](NC(=O)[C@H](Cc1c[nH]cn1)NC(=O)[C@@H](NC(=O)[C@H](CO)NC(=O)[C@@H]1CS[C@@H](C)[C@H]2NC(=O)[C@H](C)NC(=O)[C@H](NC(=O)[C@H](CCCCN)NC(=O)[C@H](CCSC)NC(=O)[C@H](CC(N)=O)NC(=O)[C@@H]3CS[C@@H](C)[C@@H](NC(=O)[C@H](CCCCN)NC(=O)[C@@H]4CS[C@@H](C)[C@@H](NC(=O)[C@@H]5CSC[C@@H](NC(=O)/C(=C/C)NC(=O)[C@@H](N)C(C)C)C(=O)N[C@@H]([C@@H](C)CC)C(=O)NC(=C)C(=O)N[C@@H](CC(C)C)C(=O)N5)C(=O)N5CCC[C@H]5C(=O)NCC(=O)N4)C(=O)NCC(=O)N[C@@H](C)C(=O)N[C@@H](CC(C)C)C(=O)N[C@@H](CCSC)C(=O)NCC(=O)N3)[C@H](C)SC[C@H](NC2=O)C(=O)N[C@@H](Cc2c[nH]cn2)C(=O)N1)[C@@H](C)CC)C(C)C)C(=O)N[C@@H](CCCCN)C(=O)O` [I1V] was 58.1± 2.8%; that for `C=C(NC(=O)[C@@H](NC(=O)[C@H](Cc1c[nH]cn1)NC(=O)[C@@H](NC(=O)[C@H](CO)NC(=O)[C@@H]1CS[C@@H](C)[C@H]2NC(=O)[C@H](C)NC(=O)[C@H](NC(=O)[C@H](CCCCN)NC(=O)[C@H](CCSC)NC(=O)[C@H](CC(N)=O)NC(=O)[C@@H]3CS[C@@H](C)[C@@H](NC(=O)[C@H](CCCCN)NC(=O)[C@@H]4CS[C@@H](C)[C@@H](NC(=O)[C@@H]5CSC[C@@H](NC(=O)/C(=C/C)NC(=O)[C@H](C)N)C(=O)N[C@@H]([C@@H](C)CC)C(=O)NC(=C)C(=O)N[C@@H](CC(C)C)C(=O)N5)C(=O)N5CCC[C@H]5C(=O)NCC(=O)N4)C(=O)NCC(=O)N[C@@H](C)C(=O)N[C@@H](CC(C)C)C(=O)N[C@@H](CCSC)C(=O)NCC(=O)N3)[C@H](C)SC[C@H](NC2=O)C(=O)N[C@@H](Cc2c[nH]cn2)C(=O)N1)[C@@H](C)CC)C(C)C)C(=O)N[C@@H](CCCCN)C(=O)O` [I1A] was 81.0 ± 1.8%.
Consider `C=C(NC(=O)[C@@H](NC(=O)[C@H](Cc1c[nH]cn1)NC(=O)[C@@H](NC(=O)[C@H](CO)NC(=O)[C@@H]1CS[C@@H](C)[C@H]2NC(=O)[C@H](C)NC(=O)[C@H](NC(=O)[C@H](CCCCN)NC(=O)[C@H](CCSC)NC(=O)[C@H](CC(N)=O)NC(=O)[C@@H]3CS[C@@H](C)[C@@H](NC(=O)[C@H](CCCCN)NC(=O)[C@@H]4CS[C@@H](C)[C@@H](NC(=O)[C@@H]5CSC[C@@H](NC(=O)/C(=C/C)NC(=O)[C@@H](N)CCSC)C(=O)N[C@@H]([C@@H](C)CC)C(=O)NC(=C)C(=O)N[C@@H](CC(C)C)C(=O)N5)C(=O)N5CCC[C@H]5C(=O)NCC(=O)N4)C(=O)NCC(=O)N[C@@H](C)C(=O)N[C@@H](CC(C)C)C(=O)N[C@@H](CCSC)C(=O)NCC(=O)N3)[C@H](C)SC[C@H](NC2=O)C(=O)N[C@@H](Cc2c[nH]cn2)C(=O)N1)[C@@H](C)CC)C(C)C)C(=O)N[C@@H](CCCCN)C(=O)O` [I1M], for which the “cleavage efficiency by NisP” value was determined as 72.3 ± 1.4%.
For the compound `C=C(NC(=O)[C@@H](NC(=O)[C@H](Cc1c[nH]cn1)NC(=O)[C@@H](NC(=O)[C@H](CO)NC(=O)[C@@H]1CS[C@@H](C)[C@H]2NC(=O)[C@H](C)NC(=O)[C@H](NC(=O)[C@H](CCCCN)NC(=O)[C@H](CCSC)NC(=O)[C@H](CC(N)=O)NC(=O)[C@@H]3CS[C@@H](C)[C@@H](NC(=O)[C@H](CCCCN)NC(=O)[C@@H]4CS[C@@H](C)[C@@H](NC(=O)[C@@H]5CSC[C@@H](NC(=O)/C(=C/C)NC(=O)[C@@H](N)Cc6ccc(O)cc6)C(=O)N[C@@H]([C@@H](C)CC)C(=O)NC(=C)C(=O)N[C@@H](CC(C)C)C(=O)N5)C(=O)N5CCC[C@H]5C(=O)NCC(=O)N4)C(=O)NCC(=O)N[C@@H](C)C(=O)N[C@@H](CC(C)C)C(=O)N[C@@H](CCSC)C(=O)NCC(=O)N3)[C@H](C)SC[C@H](NC2=O)C(=O)N[C@@H](Cc2c[nH]cn2)C(=O)N1)[C@@H](C)CC)C(C)C)C(=O)N[C@@H](CCCCN)C(=O)O` [I1Y], the “cleavage efficiency by NisP” value amounted to 22.6 ± 2.3%.
The value for `C=C(NC(=O)[C@@H](NC(=O)[C@H](Cc1c[nH]cn1)NC(=O)[C@@H](NC(=O)[C@H](CO)NC(=O)[C@@H]1CS[C@@H](C)[C@H]2NC(=O)[C@H](C)NC(=O)[C@H](NC(=O)[C@H](CCCCN)NC(=O)[C@H](CCSC)NC(=O)[C@H](CC(N)=O)NC(=O)[C@@H]3CS[C@@H](C)[C@@H](NC(=O)[C@H](CCCCN)NC(=O)[C@@H]4CS[C@@H](C)[C@@H](NC(=O)[C@@H]5CSC[C@@H](NC(=O)/C(=C/C)NC(=O)[C@@H](N)Cc6c[nH]c7ccccc67)C(=O)N[C@@H]([C@@H](C)CC)C(=O)NC(=C)C(=O)N[C@@H](CC(C)C)C(=O)N5)C(=O)N5CCC[C@H]5C(=O)NCC(=O)N4)C(=O)NCC(=O)N[C@@H](C)C(=O)N[C@@H](CC(C)C)C(=O)N[C@@H](CCSC)C(=O)NCC(=O)N3)[C@H](C)SC[C@H](NC2=O)C(=O)N[C@@H](Cc2c[nH]cn2)C(=O)N1)[C@@H](C)CC)C(C)C)C(=O)N[C@@H](CCCCN)C(=O)O` [I1W] was 5.7 ± 0.2%.
Under “I1P: nisin A variant, position one exchanged to P; pre-peptide not cleaved by NisP (MSTKDFNLDLVSVSKKDSGASPRPTSISLCTPGCKTGALMGCNMKTATCHCSIHVSK; ends and bridges not checked; cysteine pairing not given here; UniProt P13068 1-57, looked up, variant I1P)” stands “not cleaved at all”.
